Assay results taken from patent US8790678B2, “Biomaterials having nanoscale layers and coatings” (Washington University, priority 2006, dated 2014).
Bridges are numbered along the chain shown (N, C = ends). Where no end group is shown, it is not given here.

Assays:
[1] = Hydrogel mesh size by modified SDS-PAGE gel; format: physicochemical; details: PEG-OVS/albumin layer in SDS-PAGE gel
Protocol: The mesh size of PEG-OVS/albumin hydrogels was investigated using a modified SDS-PAGE gel to characterize the migration of albumin through the PEG hydrogels. A 15% acrylamide gel was formed at the bottom of the casting chamber, with a spacer to form a well on the left side of the gel. After the acrylamide solidified, the PEG-OVS/albumin precursor solution was pipetted into the formed well. The casting stand was placed in a humidified 37° C. incubator for 24 h to crosslink the PEG gel. A 7% acrylamide gel was formed over the polymerized gels, followed by a stacking gel. A solution of bovine serum albumin (BSA) was loaded into the wells of the gel, which was run under standard conditions. The gel was stained with Coomassie Blue.

D-erythro-sphingosine = experiment: Activity of GST-tagged sphingosine kinase by TLC; format: biochemical, human; details: 10 μg/mL protein, 50 μM D-erythro-sphingosine
Source text: Hydrogels were formed with the enzyme sphingosine kinase to produce S1P in the materials from a precursor (sphingosine) naturally present in the blood. Human sphingosine kinase was cloned by RT-PCR from human umbilical vein endothelial cell mRNA. The PCR insert with the correct sequence was transferred from the cloning vector to the expression vector, pGEX-6P-1, using the restriction enzymes EcoRI and XhoI, to create an N-terminal GST-tagged sphingosine kinase [SEQ ID NO. 1]. The plasmid with the correct sequence was transfected into BL21 E. coli and the cells were grown to OD600 0.6 in LB medium. Protein expression was induced with 1 mM IPTG. After 3 h, the cells were harvested by centrifugation for 20 min at 6000 g, 4° C. The cells were lysed with lysozyme and sonication. The lysate was centrifuged at 50,000 g for 45 min at 4° C. and the supernatant was filtered. The GST-containing protein was purified using GSTrap FF columns. Activity of the protein (10 μg/mL) was assessed by incubation with 50 μM D-erythro-sphingosine and […] in 0.1% BSA in PBS for 0-30 min, followed by dilution 1:1 with methanol and acidification to pH 1 with HCl. Lipids were extracted into chloroform and analyzed by thin layer chromatography on silica plates with butanol-acetic acid-water 6:2:2, with detection by ninhydrin. There was complete conversion to sphingosine 1-phosphate within 30 min.

[2] = system: Human aortic endothelial cells; experiment: Single cell tracking on RGD/PEG-OVS/albumin hydrogels under fluid shear stress; format: cell-based; details: for loss of cells from the hydrogel: highest RGD concentration, over 12 h
Protocol: Human aortic endothelial cells seeded onto RGD/PEG-OVS/albumin hydrogels at 1000-2000 cells/cm^2 were tracked under 20 dynes/cm^2 fluid shear stress in HEPES-buffered low serum medium (HEPES-LSM; MCDB 131 with 0.1% FBS, 1% ABAM, […] HEPES, pH 7.4) containing 0.4% FAF-BSA for 12 h.
Time lapse microscopy images were obtained every 2 min for 12 h of endothelial cell migration on the surface of RGD containing PEG hydrogels. The percent of cells remaining on the gels during the course of the experiment was recorded for each RGD concentration. The projected cell areas of all cells were determined by manually outlining the cells after 3 h under 20 dyne/cm^2 shear stress. Single endothelial cells were manually tracked for 12 h to obtain XY-coordinate data for the center of each cell. Coordinate data from every six minutes (Δt=6 min) for all cells in each experiment were saved as variables for analysis in MATLAB (The MathWorks, Natick, Mass.). At each time point i, ti=iΔt, the mean squared displacement was calculated using the overlapping interval method. The speed of each individual was calculated by dividing the root mean-square displacement for a single time interval by the tracking interval (6 min). Each cell's persistence time was determined by fitting the persistent random walk model given by Equation 1: <d^2(t)>=2S^2P[t−P(1−e^−t/P)] [1] using the calculated speed by nonlinear least squares regression analysis as previously described (Dunn 1983; Othmer, Dunbar and Alt 1988; Harms et al. 2005). Speed simply represents the total path length of a cell over time. Persistence time represents the time period between changes in the direction of movement of more than 60°. Path length is calculated as the product of speed and persistence time. Cell dispersion is the product of speed squared and persistence time. Cell areas were obtained by manually tracing cells. All data was analyzed by ANOVA Scheffe post hoc. Endothelial Response to Linear RGD Concentration—Cell Attachment Strength

[3] = system: chorioallantoic membrane (CAM); experiment: Chick chorioallantoic membrane (CAM) angiogenesis assay; format: in vivo, chicken; details: 50 ng spotted on Thermanox coverslip, two days
Protocol: Embryonated chicken eggs were incubated blunt-end up in a 37° C. incubator. At embryonal day 6, the top of the egg was cracked and removed using tweezers to create a 1.5 cm diameter opening. The inner shell membrane was removed, exposing the CAM. A 20 μL PEG hydrogel was then placed onto the CAM. As controls, 50 ng bFGF or 50 ng S1P were spotted onto small pieces of Thermanox coverslips (Nunc), air dried and placed onto the CAM. The eggs were sealed with parafilm and returned to the incubator. After two days of incubation, the eggs were reopened and the degree of angiogenesis was visually assessed.

[4] = Sulforhodamine B release from preloaded hydrogels; format: physicochemical; details: 500 nmol preloaded, 554 nm
Protocol: The effect of gel mesh size on the diffusion of small molecules was tested using a water-soluble dye molecule, sulforhodamine B. Sulforhodamine B (500 nmol) was preloaded into gels formed with PEG-OVS crosslinked with albumin, PEG-diamine, or DTT. The gels were incubated win PBS and the release of sulforhodamine B was detected by visible light spectroscopy at 554 nm over time. The molecular weight of sulforhodamine is 580.7, compared to 379.5 for S1P, and the diffusivity of the dye would be expected to be lower than that of S1P. Using the Wilke-Chang correlation, we calculated a diffusion coefficient of 3.42×10^−6 cm^2/sec for sulforhodamine and 4.15×10^−6 cm^2/sec for S1P, both at 37° C.

HAEC = experiment: Centrifugation assay of cell adhesion strength on RGD hydrogels; format: cell-based, human; details: range as RGD concentration in PEG-OVS/albumin hydrogel was increased; 6 h adhesion
Protocol: Cell adhesion strengths to the RGD containing hydrogel surfaces were assessed using a centrifugation assay to apply controlled detachment forces. PEG hydrogels (75 μL) of various concentrations of RGD were formed on the bottom of a 48-well non-treated culture plate. Following crosslinking for 24 h, HAEC were seeded onto the gels at 10,000 cells/cm^2 in 500 μL EGM. After 6 h to allow the cells to attach and spread, the gels were washed with DPBS. The wells were filled with DPBS to the top of the wells and then covered with adhesive sealing tape. Images were obtained at 4× to quantify the number of cells initially attached to the hydrogel. […] The percent of cells remaining on the hydrogel was quantified. […]
The effects of changing the linear RGD concentration on the initial adhesion strength of endothelial cells to PEG-OVS/albumin hydrogels were examined. […] Cell adhesion strengths were assessed by centrifugation of inverted, sealed plates containing hydrogels polymerized in the bottoms of wells. The percent of cells remaining adhered to the hydrogels after centrifugation for 5 min was measured for various forces of detachment on each concentration of linear RGD. […]
The initial adhesion strength of endothelial cells to the PEG hydrogels containing cyclic RGD peptide was measured after 6 hours to allow for endothelial cell adhesion. […]

[5] = system: Human Umbilical Vein Endothelial Cells (HUVEC); experiment: Cell adhesion assay on layer-by-layer PEG hydrogel coatings; format: cell-based; details: RGD peptide attached to PEG-VS/PEG-diamine hydrogel; medium containing serum proteins
Protocol: Hydrogels were formed layer-by-layer by conjugate addition reactions between PEG-VS and PEG-diamine. First, the surface of the substrate was activated to create reactive amine groups. Clean glass coverslips were incubated in 2% 3-aminopropyltriethoxysilane in dry acetone solution for one hour with gentle shaking. The aminophase coverslips were then cured at 100° C. for a 3 h, and stored in a clean Petri dish until use. The activated substrates were incubated with a solution containing 1% eight-arm PEG-VS overnight at pH 8.5 and 37° C. The substrates were subsequently incubated with a solution of 1% PEG-diamine (mol. wt. 3400, Shearwater Polymers) for 1 h at 37° C. This two-step process was repeated to create multiple layers (one layer comprises PEG-VS+PEG-diamine). Between incubations with PEG-VS or PEG-diamine, the surfaces were washed six times with PBS. After the formation of five layers, the substrates were incubated with PEG-VS for 1 h at 37° C. […]
The RGD peptide acetyl-GCGYGRGDSPG [SEQ ID NO. […] The peptide was purified by C18 chromatography and analyzed by MALDI-TOF mass spectrometry. […]
Human Umbilical Vein Endothelial Cells (HUVEC, Clonetics) were grown in endothelial cell growth medium (EGM, Clonetics) on tissue culture polystyrene at 37° C. and 5% CO2. […] Cells on the surfaces were imaged by phase contrast microscopy and the number of cells was counted manually.

lysozyme: molecular weight marker (14.4 kDa)
migration of protein through the PEG hydrogel [1]: freely passed through

Albumin: bovine serum albumin loaded on the SDS-PAGE gel
migration of protein through the PEG hydrogel [1]: hindered

N-terminal GST-tagged sphingosine kinase: human sphingosine kinase cloned from HUVEC mRNA with N-terminal GST tag
time to complete conversion to sphingosine 1-phosphate (D-erythro-sphingosine): ≤ 30 min

Ac-GCNAC*RGDGWC*G (Ac-GCNACRGDGWCG; disulfide 5-11) [cyclic RGD, cyclic RGD peptide cyclized by disulphide formation]
cell migration speed relative to cells without RGD ([2]; 0.69 mM cyclic RGD, 100 nM S1P): more than twice | migration speed greater than the highest speed on linear RGD with 100 nM S1P ([2]; 0.69 mM cyclic RGD, 100 nM S1P): 44% | loss of cells from the hydrogel ([2]; 20 dyne/cm^2): about 20% | RGD concentration of peak migration speed ([2]; with 100 nM S1P, 20 dyne/cm^2): 0.69 mM

bFGF: control angiogenic factor in CAM assay
angiogenic response [3]: strong angiogenic responses

CCN(CC)c1ccc2c(-c3ccc(S(=O)(=O)O)cc3S(=O)(=O)[O-])c3ccc(=[N+](CC)CC)cc-3oc2c1 [sulforhodamine B]
time to near complete release of dye into PBS [4]: ~6 h

acetyl-GCGYGRGDSPG (Ac-GCGYGRGDSPG; not fully specified (C-terminus); printed as acetyl-GCGYGRGDSPG) [linear RGD, cell adhesion-promoting peptide]
detachment force required to remove 50% of the cells (F50) (HAEC): 850-1120 pN | HUVEC adhesion to multilayered PEG hydrogel [5]: restored HUVEC adhesion | loss of cells from the hydrogel ([2]; 20 dyne/cm^2): less than 5% | RGD concentration of maximum dispersion ([2]; without S1P): 4.12 mM | RGD concentration of maximum path length ([2]; without S1P): 4.12 mM | RGD concentration of maximum cell speed ([2]; without S1P, 20 dynes/cm^2): 4.12 mM

aprotinin
migration of protein through the PEG hydrogel [1]: freely passed through
